{
  "source": "patent US20040043403A1",
  "about": "“Process for determining the biological activity of epidermal growth factor receptor tyrosine kinase inhibitors” (priority 2000, published 2004)",
  "key": {"A431 cells": {"system": "A431 cells", "experiment": "UniGEM 1 cDNA array expression profile of A431 cells", "type": "cell-based, human", "settings": "24 hours", "protocol": "The following tissue culture cells are chosen because of their EGFR expression status (Table 1). EGFR expression is measured by Western blotting, using anti-EGFR monoclonal antibodies from Transduction Labs (Lexington, Ky.). The cell lines are obtained from the ATCC (Rockville, […].). The cells are cultured in 5% CO2 at 37° C.\n20 million tissue culture cells (about 80% confluent) or 200 million WBCs are incubated for 2 or 24 h in culture medium containing 3 μM of an EGFR tyrosine kinase inhibitor or 0.03% DMSO. Total RNA from cell pellet is isolated using the RNeasy kit (Qiagen). mRNA is isolated using the oligotex mRNA purification kit (Qiagen). The quality of the obtained mRNA is tested by real time RT-PCR using beta-Actin primers (PE Applied Biosystems) with an amplicon size of 300 base pairs (bp). The total RNA is used as a reference to calculate the amount of mRNA-enrichment in the oligotex purified samples.\nProbes for the UniGEM hybridization are synthesized by Incyte Genomics (Palo Alto, Calif., USA). For each probe 200 ng mRNA (50 ng/μl) is shipped in dry ice. The results are analyzed using the Expressionist Software Package provided by GeneData.\nExpression profiles (UniGEM V arrays) of 4 tumor cell lines with different EGFR expression status (A431, NCI-H596, NCI-H520 and MDA-MB-468) and of WBCs upon exposure of cells to 3 μM of COMPOUND A for 2 or 24 h are analyzed. As control, cells treated with DMSO for the same time period are used. […] The cDNA array hybridization is repeated with the UniGEM 1 array using the same mRNA (Table 3)."}, "EGFR tyrosine kinase": {"target": "EGFR tyrosine kinase (Homo sapiens, UniProt P00533)", "sequence (P00533 669-1210 limits assumed)": "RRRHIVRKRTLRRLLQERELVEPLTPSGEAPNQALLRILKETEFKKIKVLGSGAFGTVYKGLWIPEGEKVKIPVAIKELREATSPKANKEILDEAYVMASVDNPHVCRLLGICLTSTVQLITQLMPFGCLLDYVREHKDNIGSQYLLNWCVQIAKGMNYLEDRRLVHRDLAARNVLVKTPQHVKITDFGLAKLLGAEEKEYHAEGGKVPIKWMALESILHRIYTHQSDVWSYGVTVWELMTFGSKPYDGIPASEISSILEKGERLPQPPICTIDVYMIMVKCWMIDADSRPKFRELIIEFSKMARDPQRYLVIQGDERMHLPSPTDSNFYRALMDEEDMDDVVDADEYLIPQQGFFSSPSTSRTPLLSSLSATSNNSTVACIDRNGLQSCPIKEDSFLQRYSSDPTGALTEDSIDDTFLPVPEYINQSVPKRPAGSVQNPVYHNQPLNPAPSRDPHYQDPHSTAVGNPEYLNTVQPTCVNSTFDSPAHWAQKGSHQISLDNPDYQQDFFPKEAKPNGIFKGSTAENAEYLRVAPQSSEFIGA", "settings": "disclosed in WO 97/02266; cited from earlier work"}},
  "data": [
    {"smiles": "C[C@@H](Nc1ncnc2[nH]c(-c3ccc(O)cc3)cc12)c1ccccc1", "note": "[COMPOUND A, (R)-6-(4-hydroxy-phenyl)-4-[(1-phenyl-ethyl)-amino]-7H-pyrrolo[2,3-d]pyrimidine]", "values": [
      {"measurement": "Gene induction, Micro Array UniGEM 1: Acute phase serum amyloid A protein", "setting": "A431 cells; 3 μM, RNA from Experiment 1", "result": 4.4},
      {"measurement": "Gene induction, Micro Array UniGEM 1: Cathepsin H", "setting": "A431 cells; 3 μM, RNA from Experiment 1", "result": 2.2},
      {"measurement": "Gene induction, Micro Array UniGEM 1: Caveolin", "setting": "A431 cells; 3 μM, RNA from Experiment 1", "result": 3.4},
      {"measurement": "Gene induction, Micro Array UniGEM 1: Complement component 3 (C3)", "setting": "A431 cells; 3 μM, RNA from Experiment 1", "result": 3.1},
      {"measurement": "Gene induction, Micro Array UniGEM 1: Complement cytolysis inibitor (Clusterin)", "setting": "A431 cells; 3 μM, RNA from Experiment 1", "result": 2.7},
      {"measurement": "Gene induction, Micro Array UniGEM 1: DNA binding protein inhibitor ID-3", "setting": "A431 cells; 3 μM, RNA from Experiment 1", "result": 2.1},
      {"measurement": "Gene induction, Micro Array UniGEM 1: Extracellular protein S1-5", "setting": "A431 cells; 3 μM, RNA from Experiment 1", "result": 3.3},
      {"measurement": "Gene induction, Micro Array UniGEM 1: TGF-beta induced gene", "setting": "A431 cells; 3 μM, RNA from Experiment 1", "result": 2.1},
      {"measurement": "Gene induction, Micro Array UniGEM 1: TRAIL", "setting": "A431 cells; 3 μM, RNA from Experiment 1", "result": 3.0},
      {"measurement": "Gene induction, Micro Array UniGEM 1: VAC-beta (annexin VIII)", "setting": "A431 cells; 3 μM, RNA from Experiment 1", "result": 3.0},
      {"measurement": "Differential Expression (Balanced): Human D-type cyclin (CCND2) mRNA {IM359412}", "setting": "A431 cells; GB Acc. No. AA010487, 3 μM, versus DMSO treated cells, negative numbers: repressed genes", "result": "−8.2"},
      {"measurement": "Differential Expression (Balanced): ESTs {IM365120}", "setting": "A431 cells; GB Acc. No. AA025124, 3 μM, versus DMSO treated cells", "result": 2.7},
      {"measurement": "Differential Expression (Balanced): Human HE4 mRNA for extracellular protease {IM366323}", "setting": "A431 cells; GB Acc. No. AA025750, 3 μM, versus DMSO treated cells", "result": 2.6},
      {"measurement": "Differential Expression (Balanced): Human mRNA for precursor of epidermal growth factor receptor {IM469272}", "setting": "A431 cells; GB Acc. No. AA026089, 3 μM, versus DMSO treated cells", "result": 2.8},
      {"measurement": "Differential Expression (Balanced): Human cyclin-dependent protein kinase mRNA {IM366824}", "setting": "A431 cells; GB Acc. No. AA029438, 3 μM, versus DMSO treated cells", "result": 2.8},
      {"measurement": "Differential Expression (Balanced): Human extracellular protein (S1-5) mRNA {IM470007}", "setting": "A431 cells; GB Acc. No. AA030000, 3 μM, versus DMSO treated cells", "result": 3.3},
      {"measurement": "Differential Expression (Balanced): ESTs {IM471869}", "setting": "A431 cells; GB Acc. No. AA035156, 3 μM, versus DMSO treated cells", "result": 3.0},
      {"measurement": "Differential Expression (Balanced): Human nucleotide-binding protein mRNA; c {IM376052}", "setting": "A431 cells; GB Acc. No. AA039353, 3 μM, versus DMSO treated cells, negative numbers: repressed genes", "result": "−3.5"},
      {"measurement": "Differential Expression (Balanced): ESTs {IM485336} contains Alu repetitive elements", "setting": "A431 cells; GB Acc. No. AA039628, 3 μM, versus DMSO treated cells, negative numbers: repressed genes", "result": "−6.8"},
      {"measurement": "Differential Expression (Balanced): Human 5′-AMP-activated protein kinase; g {IM376178}", "setting": "A431 cells; GB Acc. No. AA040600, 3 μM, versus DMSO treated cells, negative numbers: repressed genes", "result": "−4.1"},
      {"measurement": "Differential Expression (Balanced): Human mRNA for pancreatic carcinoma marker {IM376296} (Trop-2)", "setting": "A431 cells; GB Acc. No. AA041250, 3 μM, versus DMSO treated cells", "result": 3.0},
      {"measurement": "Differential Expression (Balanced): Human complement component 3 (C3) gene {IM485717}", "setting": "A431 cells; GB Acc. No. AA041549, 3 μM, versus DMSO treated cells", "result": 3.1},
      {"measurement": "Differential Expression (Balanced): Human annexin VIII mRNA; complete cds. {IM376634} (VAC-beta)", "setting": "A431 cells; GB Acc. No. AA046102, 3 μM, versus DMSO treated cells", "result": 3.0},
      {"measurement": "Differential Expression (Balanced): Human mRNA for caveolin {IM488533}", "setting": "A431 cells; GB Acc. No. AA047243, 3 μM, versus DMSO treated cells", "result": 3.4},
      {"measurement": "Differential Expression (Balanced): Fibronectin {IM512287}", "setting": "A431 cells; GB Acc. No. AA057694, 3 μM, versus DMSO treated cells, negative numbers: repressed genes", "result": "−8.8"},
      {"measurement": "Differential Expression (Balanced): ESTs {IM377004}", "setting": "A431 cells; GB Acc. No. AA057780, 3 μM, versus DMSO treated cells", "result": 2.7},
      {"measurement": "Differential Expression (Balanced): TransformIng growth factor-beta induced gene product (BIGH3)", "setting": "A431 cells; GB Acc. No. AA057802, 3 μM, versus DMSO treated cells", "result": 2.1},
      {"measurement": "Differential Expression (Balanced): Human mRNA for cathepsin H (E.C.3.4.22.1) {IM489348}", "setting": "A431 cells; GB Acc. No. AA058337, 3 μM, versus DMSO treated cells", "result": 2.2},
      {"measurement": "Differential Expression (Balanced): Human fibronectin gene extra type III re {IM151144}", "setting": "A431 cells; GB Acc. No. H03907, 3 μM, versus DMSO treated cells, negative numbers: repressed genes", "result": "−6.9"},
      {"measurement": "Differential Expression (Balanced): ESTs {IM46265}", "setting": "A431 cells; GB Acc. No. H09077, 3 μM, versus DMSO treated cells, negative numbers: repressed genes", "result": "−21.9"},
      {"measurement": "Differential Expression (Balanced): Human ribosomal protein L5 pseudogene mRNA {IM50482}", "setting": "A431 cells; GB Acc. No. H17614, 3 μM, versus DMSO treated cells, negative numbers: repressed genes", "result": "−3.6"},
      {"measurement": "Differential Expression (Balanced): ESTs {IM172005}", "setting": "A431 cells; GB Acc. No. H18621, 3 μM, versus DMSO treated cells, negative numbers: repressed genes", "result": "−3.1"},
      {"measurement": "Differential Expression (Balanced): Human acute phase serum amyloid A protein {IM161456}", "setting": "A431 cells; GB Acc. No. H25546, 3 μM, versus DMSO treated cells", "result": 4.4},
      {"measurement": "Differential Expression (Balanced): Human TNF-related apoptosis inducing ligand TRAIL {IM203132}", "setting": "A431 cells; GB Acc. No. H54629, 3 μM, versus DMSO treated cells", "result": 4.0},
      {"measurement": "Differential Expression (Balanced): Human complement cytolysis inhibitor (CLI) mRNA; complete cds (Clusterin)", "setting": "A431 cells; GB Acc. No. M25915, 3 μM, versus DMSO treated cells", "result": 2.7},
      {"measurement": "Differential Expression (Balanced): ESTs {248032}", "setting": "A431 cells; GB Acc. No. N53767, 3 μM, versus DMSO treated cells", "result": 2.6},
      {"measurement": "Differential Expression (Balanced): Rat N-syndecan mRNA {IM26677}", "setting": "A431 cells; GB Acc. No. R13994, 3 μM, versus DMSO treated cells", "result": 2.9},
      {"measurement": "Differential Expression (Balanced): Human fibronectin (fn) 3′ coding region {IM136798}", "setting": "A431 cells; GB Acc. No. R36450, 3 μM, versus DMSO treated cells, negative numbers: repressed genes", "result": "−4.7"},
      {"measurement": "Differential Expression (Balanced): ESTs {IM23605}", "setting": "A431 cells; GB Acc. No. R39436, 3 μM, versus DMSO treated cells", "result": 2.6},
      {"measurement": "Differential Expression (Balanced): PUTATIVE LYMPHOCYTE G0/G1 SWITCH PROTEIN 2 {IM67939}", "setting": "A431 cells; GB Acc. No. T52813, 3 μM, versus DMSO treated cells, negative numbers: repressed genes", "result": "−3.3"},
      {"measurement": "Differential Expression (Balanced): ESTs {IM73785}", "setting": "A431 cells; GB Acc. No. T54672, 3 μM, versus DMSO treated cells", "result": 2.6},
      {"measurement": "Differential Expression (Balanced): ESTs {IM74546}", "setting": "A431 cells; GB Acc. No. T59122, 3 μM, versus DMSO treated cells", "result": 2.9},
      {"measurement": "Differential Expression (Balanced): Human mitosin mRNA; complete cds. {IM113765}", "setting": "A431 cells; GB Acc. No. T76993, 3 μM, versus DMSO treated cells, negative numbers: repressed genes", "result": "−3.0"},
      {"measurement": "Differential Expression (Balanced): DNA-BINDING PROTEIN INHIBITOR ID-3 {IM323946}", "setting": "A431 cells; GB Acc. No. W46413, 3 μM, versus DMSO treated cells", "result": 2.1},
      {"measurement": "Differential Expression (Balanced): Human nuclear orphan receptor LXR-alpha {IM357775}", "setting": "A431 cells; GB Acc. No. W95433, 3 μM, versus DMSO treated cells, negative numbers: repressed genes", "result": "−3.0"},
      {"measurement": "Inhibition of the EGFR tyrosine kinase", "setting": "EGFR tyrosine kinase", "result": "potent and selective inhibitor"}
    ]}
  ]
}
